Reference: patent US20030229037A1, “Novel cationic amphiphiles” (priority 2000, published 2003)

How the values were obtained:
COS-7 cells [1] = experiment: Transfection of COS-7 cells with lipid/DNA lipoplexes (luciferase reporter plasmid pCMXluc), efficiency relative to DOTAP; type: cell-based, green meerkat; conditions: for relative transfection efficiency (maximum): COS-7, pCMXluc, cationic lipid/DOPE 1:1, most effective lipid/DNA ratio of 1:1 to 15:1, 48 h, RLU/µg protein based on DOTAP = 100%
Procedure: A transfection experiment with cationic lipids can be broken down into four different individual steps. An important prerequisite for the success of a transfection experiment is the successful preparation of liposomes from the lipids to be tested (Step 1). DNA dissolved in buffer is then added to these liposomes, forming lipid/DNA complexes called lipoplexes (Step 2). The lipoplexes are then added to the cells (Step 3). The lipoplexes mediate the uptake of the DNA in the cell. Finally, the success of a transfection is quantified by determining the quantity of gene product forms and any toxicity that may occur is quantified by measuring the quantity of total protein (Step 4).
A reporter plasmid pCMXluc containing 8,600 base pairs (provided by R. Schüle) that codes for the enzyme luciferase was used to manufacture the lipoplexes. The composition of the lipoplexes and especially the proportion of lipid/DNA [Weibel et al., 1995; Felgner et al., 1994] are critical factors for obtaining a high level of protein expression. The number of negative charges of the plasmid used (one negatively-charged phosphate group per base) and the number of positive charges caused by adding cationic liposomes were used to calculate the proportion of lipid/DNA. For polycationic lipids, the number of all amino functions contained in the head group was made equal to the number of positive charges per lipid. Eight different lipoplexes with charge ratios from 1:1 to 15:1 were manufactured for each cationic lipid. In this process, each lipoplex received the same quantity of DNA but different quantities of lipid. An overview of the model calculation of various proportions of lipid/DNA is presented below.
After the plasmid (dissolved in buffer) was added to the liposomes, a pipette was used to carefully mix the formulation. It was then allowed to stand at room temperature for 60 minutes to allow the lipoplexes to form. The ripening conditions used here to prepare lipoplexes are based on findings described earlier [Yang and Huang, 1998] and also represent the result of a systematic optimization of lipoplex ripening conditions that were determined using a simple cationic lipid and a tricationic lipid, and which were used here to prepare all lipoplexes [Regelin, 2000].
The COS-7 cell line (kidney cells from the green meerkat, fibroblast-like cells) which is often used in transfection studies [You et al., 1999; Yu et al., 1999] was used for the cell experiments. This cell line is known to be easy to transfect and grows adherently. It was therefore expected that transfection data could be matched up with all synthesized cationic lipids, and that structure/effectiveness relationships could therefore be identified. The cell experiments were carried out in 96-well microtiter plates with 5,000 cells per well. Cell density has a considerable influence on the success of a transfection experiment when COS-7 cells are used [Deshmukh and Huang, 1997]: on the one hand, cells that are sowed too densely are harder to transfect than less densely sowed cells due to their reduced tendency to divide. While it is not the intention of the applicant to be bound to any particular theory, nor to affect in any measure the scope of the appended claims, it is presently believed that the explanation lies in that plasmids pass more easily into the nucleus of dividing cells [Mortimer et al., 1999], because the […] becomes full of holes or is dissolved during cell division. On the other hand, transfections of cells that have a very low cell density are often associated with elevated cytotoxicity, because more lipoplexes are now available per cell. A moderate cell density of 40-50% confluence, at which a sufficient level of cell division is observed, was selected for the transfection experiments to be carried out as part of this work. […]

[2] = amino groups, aqueous solution; literature values; cited from earlier work
[3] = Liposome preparation (lipid film hydration, ultrasound) and size distribution by photon correlation spectroscopy; type: physicochemical; conditions: equimolar DOPE, HBS buffer pH 7.4, ultrasound bath
Procedure: Preferably, the cationic amphiphile and helper lipid are present in a molar mixing ratio of from about five to one to about one to five. More preferably, the cationic amphiphile and helper lipid are present in a molar mixing ratio of from about two to one to about one to two. Still more preferably, the molar mixing ratio of cationic amphiphile to helper lipid is about 1:1. To prepare liposomes, the cationic lipid to be tested and a helper lipid were dissolved in an organic solvent (e.g., chloroform/methanol mixtures).
The lipid films can be hydrated by adding buffer, which also gives rise to multilamellar vesicles (MLV). The MLV are then converted into small unilamellar vesicles (SUV) via ultrasonic treatment. [Moog, 1999; Lasic, 1994 and 1995]. The duration of exposure to ultrasound required until a homogenous population of SUV formed depended on the strength of the ultrasound bath. When a common commercial ultrasound bath was used, the process lasted 15-20 minutes. When a high performance ultrasound bath from Bandelin was used (which is also used to homogenize tissue samples) the same results were obtained after just 2 minutes. All liposomes were characterized by measuring their size distribution using photon correlation spectroscopy. In this process, the sizes of liposomes found were preferably between about 20 and about 200 nm, more preferably between about 50 and about 150 nanometers.
To make the liposome preparation, dissolve 1.29 μmol of the simple cationic lipid to be tested (bicationic: 0.645 μmol, tricationic: 0.43 μmol) in chloroform/methanol (2:1 v/v) in a test tube with an equimolar quantity of DOPE. Use the simple cationic lipid DOTAP without the addition of DOPE.
Slowly blow off the organic solvent with a TCS sample preparation system (Vapotherm, BARLEY, Bielefeld, Germany) using nitrogen (30-60 minutes) at room temperature. The dried lipid films can be stored for many months at −20° C. […]

COS-7 cells [4] = experiment: Total protein quantity per well (BCA test) as measure of cytotoxicity of the lipoplexes; type: cell-based, green meerkat; conditions: COS-7, lipid/DOPE 1:1 lipoplexes, 48 h
Procedure: 48 hours after the lipoplexes were added, the medium was removed and the cells were washed, because the medium would interfere with the tests to determine the transfection data. The cells were then lysed in order to make a homogeneous cell protein solution. The lysate of every single well was distributed and the total quantity of protein and the luciferase activity were determined in independent assays.
The total protein quantity was determined using the BCA test with bovine serum albumin as the standard and indicated in the unit μg/well. The protein quantity measured correlates with the number of adherent, living cells still present after transfection and can therefore be used as a measure of toxicity of the respective lipoplexes [Gao and Huang, 1991]. Comparisons of the protein quantities measured with results from cytotoxicity assays that were performed [Regelin, 2000] verify this relationship. The measured values were used in the calculation of transfection efficiency (see below).
Remove the supernatant medium completely, wash the cells once with a 0.9% NaCl solution, then add 50 μl lysis buffer (ROCHE, Germany) per well. […] Use a BCA test (PIERCE, Rockford, USA) to determine the quantity of total protein per well. […] Determine the protein concentration using the calibration curve in the spectral photometer (Spectra, TECAN, Germany) by quantifying the absorption at λ=550 nm.

Compound | liposome formation in mixture with DOPE [3] | relative transfection efficiency (maximum) (COS-7 cells [1]) | also measured
CCCCCCCC/C=C\CCCCCCCC(=O)OCC(C[N+](C)(C)C)OC(=O)CCCCCCC/C=C\CCCCCCCC.[Cl-] (stereo not shown) [DOTAP, N-[1-(2,3-dioleoyloxy)propyl]-N,N,N-trimethylammoniumchloride, reference compound] | – | – | transfection efficiency of the standard lipid (defined as 100%) (COS-7 cells [1]; DOTAP without DOPE, lipid/DNA 2.5:1, COS-7, external standard in each microtiter plate): 100%
NCCCCNCCCN [Spermidine] | – | – | pKa [2]: above 8
CCCCCCCCCCCCCCOCC(COC(=O)CN(C)C)OCCCCCCCCCCCCCC (stereo not shown) [compound 110] | formed no liposomes | only very low transfection efficiencies | –
CCCCCCCCCCCCCCOCC(COC(=O)C[N+](C)(C)C)OCCCCCCCCCCCCCC (stereo not shown) [compound 111] | used successfully in a mixture with DOPE to prepare liposomes | 83% | –
CC(C)CCC[C@@H](C)[C@H]1CC[C@H]2[C@@H]3CC=C4C[C@@H](OC(=O)CN(C)C)CC[C@]4(C)[C@H]3CC[C@]12C [lipid 4, N-Cholesteryloxycarbonylmethyl-N,N-dimethylamine] | liposomes could not be prepared | did not result in a single transfection | cytotoxicity of the lipoplexes (total protein quantity) (COS-7 cells [4]): No cytotoxicity was observed
CCCCCCCCCCCCCCOCC(COC(=O)CNCCCCNCCCN)OCCCCCCCCCCCCCC.O=CO (stereo not shown) [lipid 115, 10-((2,3-di-tetradecyloxy)-propyloxcarbonylmethyl)-1,5,10-triazadekan formic acid salt] | – | 135% | –
CN(C)C [trimethylamine] | – | – | pKa [2]: ~10
Lipid A | – | approx. 300% | cytotoxicity of the lipoplexes (total protein quantity) (COS-7 cells [4]): do not exhibit elevated cytotoxicities
